Test results taken from patent US20260000642A1 (Tay Therapeutics Limited, priority 2022, published 2026).
“And” between values parts separate entries of the source, which are not always exact repeats. Equal entries are not always repeated.

Legend:
[1] = system: UUO renal fibrosis in rats; test: Unilateral Urethral Obstruction (UUO) rat renal fibrosis model: body weight, clinical observations, nephropathy scores; type: in vivo; set-up: Glomerulosclerosis clinical score / Interstitial nephritis clinical score / Collagen fiber deposition clinical score / Nephropathy clinical score: scale not given here; conditions: for Body weight: individual animals ID 1-8; for Clinical Observation: — = no finding, cells wrap: soft/stool, Anal/dirty
Text: Unilateral Urethral Obstruction (UUO) is a complex model of renal fibrosis (RF) disease. RF is a common outcome in progressive chronic kidney diseases, characterized by excessive formation of internal scar tissue. Surgical obstruction of urine flow can be used to trigger this disease in rodents. The UUO model allows for evaluation of potential drugs as treatment for RF.
Experimental groups for the study are outlined in Table 10. […] Briefly, animals were anesthetized using a Zoletil/Xylazine mixture (20:1, v:v) for a final dose of 25 mg/kg. The operation area was disinfected with 75% alcohol before shaving. Rats in UUO group were exposed left ureter through a small incision on the left side of the abdomen and ligated with 3-0 silk at two locations about 0.5 cm below the renal hilum. The ureters of sham rats in Group 1 were manipulated but not ligated.
Starting on Day 0, animals in group 2 were administered daily doses of the vehicle for 14 days.
Clinical signs for all animals were monitored and recorded daily. Blind clinical nephropathy scores were conducted for all animals in the study. Glomerulosclerosis, interstitial nephritis, collagen fiber deposition, nephropathy were each assessed for all experimental rats, and a total clinical score was determined for each rat. The scoring system represented the degree or percentage of lesions in the whole kidney. Clinical score assessments were performed on Day 14.
Starting on Day 0, animals in group 2 were administered daily doses of the vehicle for 14 days. […] A design of the UUO study is depicted in FIG. 9B.
Blind clinical nephropathy scores were conducted for all animals in the study. Glomerulosclerosis, interstitial nephritis, collagen fiber deposition, and nephropathy were each assessed for all experimental rats, and a total clinical score was determined for each rat. The scoring system represented the degree or percentage of lesions in the whole kidney. Clinical score assessments were performed on Day 14.

UUO model: serum urea = type: in vivo, rat; conditions: UUO rats; 30 mg/kg; compared with sham and UUO + vehicle
Text: Serum for blood biochemistry analysis was collected into centrifuge tubes without coagulant four hours after final dosing. Blood plasma samples from group 3 was collected into tubes with K2EDTA four hours after final dosing. At the conclusion of the study (end of the 14-day period), animals were euthanized. Kidney tissue was collected four hours after final dosing. Ligated side kidney was divided into three copies 1/3 fix into 10% formalin for H&E analysis, 1/3 into RNA for PCR analysis of tissue biomarkers Col1a1, TGF-b1, MCP-1, IL-1b, IL-6, IL-17, TNF-a, and Timp1, and 1/3 for hydroxyproline assay analyzed by ELISA. RNA was extracted from tissue using the RNeasy mini kit (Qiagen). RNA concentration was measured using a NanoDrop One Spectrophotometer (ThermoFisher) and converted to cDNA using a High-Capacity RNA-to-cDNA kit (Invitrogen). RT-PCR was performed to measure levels of mRNA of different targets using TaqMan® Gene Expression Master Mix and TaqMan® probe/primer sets on a QuantStudio 6 Real-Time PCR System (ThermoFisher). Fold change in target gene expression was determined using the ΔΔCt method.

[2] = system: collagen-induced arthritis in Lewis rats; test: CIA model: histopathologic analysis of H&E-stained hind limbs; type: in vivo, Lewis rat
Text: Hind limbs were collected following euthanasia, with the left limb being used for H&E staining.
H&E-stained slides of designated tissues from animals were transferred to an independent pathologist for microscopic evaluation (SPFBio). Samples were assigned the histologic grades based on the severity of change from tissue where CIA was not induced. Histology grades assigned were as follows: grade 1 (minimal change), grade 2 (mild change), grade 3 (moderate change), grade 4 (marked change), and grade 5 (severe change).
Moderate inflammation was also associated with increased edema fluid, fibrin, and cellular debris. Marked mixed cell inflammation was characterized by dense, widespread accumulations of neutrophils and macrophages with lesser number of lymphocytes within one or more joint spaces, synovium and periarticular soft tissues. Marked inflammation was also associated with abundant edema fluid, fibrin, and cellular debris.
Marked granulation tissue (pannus) was associated with inflammation and was characterized by widespread fibrovascular connective tissue that expanded/replaced the periarticular soft tissues of one or more joints, extended into/expanded joint spaces, was contiguous with areas of erosion/ulcer in articular cartilage and/or increased eroded surface of bone, and variably extended along the diaphysis.
Instances of minimal increased eroded surface were not associated with fragments of bone contiguous and/or surrounded by granulation tissue. […] In some areas, increased eroded surfaces were contiguous with areas of erosion/ulcer in the articular cartilages. Instance of marked increased eroded surface were often associated with fragments of bone contiguous with and/or surrounded by granulation tissue.
This observation was typically most pronounced at joint margins (transition zone). The ulceration was often associated with inflammation and granulation tissue extending through the defect to the subchondral bone.
Marked increased periosteal bone (periosteal bone formation) was characterized by extensive areas of increased bone matrix and numerous prominent osteoblasts lining trabecular surfaces along the metaphysis and/or diaphysis of one or more bones. In some areas, increased periosteal bone was contiguous with increased eroded surface and/or erosion/ulcer at articular cartilage.

IL-17A = test: Human PBMC assay, IL-17A by ELISA (CD2/CD3/CD28 bead stimulation); type: cell-based; conditions: 72 hours
Procedure: CD2, CD3, and CD28 antibody-coated beads from the T-cell activation/expansion kit (Miltenyi Biotec) were added to the PBMC at a bead-to-cell ratio of 1:2. The mixture of PBMCs and beads were seeded into the wells of the round-bottom 96-well plate at a concentration of 2×10^5 cells/well in a total volume of 200 μL. The cells were cultured for 72 hours at 37° C. and 5% CO2 and then supernatants were collected and IL-17A and IL-22 levels were measured by ELISA. […] The final compound concentration ranged from 30,000 nM to 0.005 nM and the final DMSO concentration per well was 0.3%. PBMCs were seeded at approximately […] in the wells of the 96-well tissue culture plate in a total volume of 190 μL. The plate was incubated for 1 hour at 37° C. and 5% CO2. […] The cells were then cultured for 24 hours at 37° C. and 5% CO2. The supernatant was collected and CXCL10 levels were measured by ELISA.

[3] = system: rat anti-collagen IgG1 antibodies; test: CIA model: rat anti-collagen IgG1 antibodies in serum at day 21; type: in vivo, Lewis rat; conditions: for levels of rat anti-collagen IgG1 antibodies relative to CIA without treatment: day 21
Procedure: Blood was additionally collected from groups 1-7 via cardiac puncture following euthanasia on Day 21. Blood from cardiac puncture was placed in a 1.5 mL centrifuge tube without an anticoagulant and centrifuged at 8000 rcf for 15 minutes. Serum was divided into two separate tubes and stored at −75±15° C. One tube was used to analyze IgG1, and the other tube was reserved for additional analyses.
All data measured and recorded was analyzed using SPSS 16.0 software. Groups were compared using one-way ANOVA and significance was set at p<0.05.

[4] = Pharmacokinetics of Example 101 in Lewis rats (oral, CIA study); type: in vivo, Lewis rat; conditions: day 20, 10 mg/kg, individual test subjects
[5] = UUO rats, individual animals No. 1-8
[6] = CIA rats, 30 mg/kg (Group 7), seven of eight samples
[7] = hind limbs, CIA induced, 8 animals examined, comparator groups 3-4, dose not given

## CNC(=O)c1[nH]c(C(=O)NC2CCC2)cc1O[C@@H](C)c1ccccc1 [Example 101, N^5-cyclobutyl-N^2-methyl-3-(1-phenylethoxy)-1H-pyrrole-2,5-dicarboxamide]
[1]; 30 mg/kg
  clinical symptoms associated with UUO (overall conclusion): ameliorates clinical symptoms associated with UUO
[1]; UUO rats, 30 mg/kg, Day 5, 30 mg/kg
  Body weight: 310 g
[1]; UUO rats, 30 mg/kg, Day 7, 30 mg/kg
  Body weight: 270 g
[1]; UUO rats, 30 mg/kg, Day 8, 30 mg/kg
  Body weight: 260 g and 290 g
[1]; UUO rats, 30 mg/kg, Day 10, 30 mg/kg
  Body weight: 330 g (2×) and 320 g
[1]; UUO rats, 30 mg/kg, Day 11, 30 mg/kg
  Body weight: 300 g and 330 g
[1]; UUO rats, 30 mg/kg, Day 12, 30 mg/kg
  Body weight: 260 g and 310 g and 300 g and 340 g
[1]; [5]
  Collagen fiber deposition clinical score: 2 (2×) and 1 (6×)
  Glomerulosclerosis clinical score: 0
  Interstitial nephritis clinical score: 3 (5×) and 2 (3×)
  Nephropathy clinical score: 2 (2×) and 1 (6×)
[1]; UUO rats, individual animals No. 1-8, Day 3
  Clinical Observation: diarrhea
[1]; UUO rats, individual animals No. 1-8, Day 5
  Clinical Observation: Anal
[1]; UUO rats, individual animals No. 1-8, Day 6
  Clinical Observation: Anal
[1]; UUO rats, individual animals No. 1-8, Day 7
  Clinical Observation: Anal
[1]; UUO rats, individual animals No. 1-8, Day 8
  Clinical Observation: soft
[1]; UUO rats, individual animals No. 1-8, Day 9
  Clinical Observation: soft
[1]; UUO rats, individual animals No. 1-8, Day 10
  Clinical Observation: soft
[1]; UUO rats, individual animals No. 1-8, Day 13
  Clinical Observation: soft
[1]; UUO rats, individual animals No. 1-8, Day 14
  Clinical Observation: Anal (2×) and soft
[1]; UUO rats, 30 mg/kg (FIG. 13B)
  interstitial nephritis in representative pathology staining: mild interstitial nephritis
[1]; UUO rats, 30 mg/kg, 14 days
  animals exhibiting diarrhea: One animal
  animals exhibiting dirty anuses: Three animals
  animals exhibiting soft stools: Four UUO rats
[1]; UUO rats, 30 mg/kg, BID at 0 and 8 hours, 14 days (group 3)
  body weight over the 14-day study: slight weight loss over the first seven days of the study, and then gained weight over the remaining seven days
[1]; UUO rats, 30 mg/kg, Day 14
  collagen fiber deposition score relative to UUO + vehicle: reduced
  interstitial nephritis score relative to UUO + vehicle: reduced
  nephropathy score relative to UUO + vehicle: reduced
  total clinical scores relative to UUO + vehicle: reduced
UUO model: serum urea
  serum urea levels: No significant differences
[2]; CIA rats, 3 mg/kg (Group 5)
  articular cartilage erosion or ulcers: mild to moderate
  granulation tissue (pannus): mild to moderate
  increased eroded surface of bone (bone resorption): mild to moderate
  increased periosteal bone (periosteal bone formation): mild to moderate
  mixed cell inflammation: moderate to marked
[2]; CIA rats, 10 mg/kg (Group 6)
  erosion in the articular cartilages: moderate
  granulation tissue (pannus): moderate
  increased eroded surface of bone (bone resorption): moderate
  increased periosteal bone (periosteal bone formation): moderate
  mixed cell inflammation: moderate
[2]; CIA rats, 30 mg/kg (Group 7)
  samples with no recorded pathological observations: One out of eight samples
[2]; [6]
  erosion in the articular cartilages: mild
  granulation tissue (pannus): moderate
  increased eroded surface of bone (bone resorption): mild
  increased periosteal bone (periosteal bone formation): mild
  mixed cell inflammation: moderate
[2]; CIA rats, Groups 5-7 (3, 10, 30 mg/kg)
  pathologic observations after microscopic evaluation (overall): at lower levels relative to samples from animals in the CIA-induced group (Group 2) in a dose-dependent manner
[2]; hind limbs, CIA induced, 8 animals examined, 30 mg/kg (Group 7)
  Erosion/Ulcer, cartilaginous, Mild, number of animals: 4
IL-17A
  IC50 for IL-17A relative to GSK620: substantially lower 1050
[3]; 1 mg/kg, p<0.05
  levels of rat anti-collagen IgG1 antibodies relative to CIA without treatment: significantly decreased
[3]; 10 mg/kg, p<0.05
  levels of rat anti-collagen IgG1 antibodies relative to CIA without treatment: significantly decreased
[3]; 30 mg/kg, p<0.01
  levels of rat anti-collagen IgG1 antibodies relative to CIA without treatment: significantly decreased
[4]
  Plasma concentration at 14 h: 68.5 ng/mL and 159 ng/mL and 185 ng/mL

## C[C@@H]1C[C@H]2[C@@H]3CCC4=CC(=O)C=C[C@]4(C)[C@@]3(F)[C@@H](O)C[C@]2(C)[C@@]1(O)C(=O)CO [dexamethasone]
[2]; [7]
  Erosion/Ulcer, cartilaginous, Marked, number of animals: 0
  Erosion/Ulcer, cartilaginous, Mild, number of animals: 0
  Erosion/Ulcer, cartilaginous, Minimal, number of animals: 0
  Erosion/Ulcer, cartilaginous, Moderate, number of animals: 0
  Granulation tissue, Marked, number of animals: 0
  Granulation tissue, Mild, number of animals: 0
  Granulation tissue, Minimal, number of animals: 0
  Granulation tissue, Moderate, number of animals: 0
  Increased bone, periosteum, Marked, number of animals: 0
  Increased bone, periosteum, Mild, number of animals: 0
  Increased bone, periosteum, Minimal, number of animals: 0
  Increased bone, periosteum, Moderate, number of animals: 0
  Increased eroded surface, bone, Marked, number of animals: 0
  Increased eroded surface, bone, Mild, number of animals: 0
  Increased eroded surface, bone, Minimal, number of animals: 0
  Increased eroded surface, bone, Moderate, number of animals: 0
  Mixed cell inflammation, Marked, number of animals: 0
  Mixed cell inflammation, Mild, number of animals: 0
  Mixed cell inflammation, Minimal, number of animals: 0
  Mixed cell inflammation, Moderate, number of animals: 0
  No Visible Lesions, number of animals: 8
[3]; day 21 serum, reference group (Dexamethasone or GSK620), before fold 2000 correction, individual animals
  Rat Anti-Collagen IgG1 Antibody Con.: 11.01 units/ml and 2.63 units/ml and 0.65 units/ml and 1.27 units/ml and 5.87 units/ml and 2.28 units/ml and 3.96 units/ml and 3.67 units/ml
[3]; day 21 serum, reference group (Dexamethasone or GSK620), individual animals
  Final Rat Anti-Collagen IgG1 Antibody Con.: 22019.88 units/ml and 5250.27 units/ml and 1296.14 units/ml and 2541.14 units/ml and 4553.59 units/ml and 7925.50 units/ml and 7346.16 units/ml
